Experimental data published in patent publication US4990617A, “N-oxide prodrug derivatives of 3-hydroxy morphinans and partial morphinans and derivatives” (E. I. Du Pont de Nemours and Company, priority 1989, dated 1991).
Where a name gives a salt, the structure may show the parent alone. Read-outs that look alike come from different tables or passages of the source.

How the values were obtained:
[1] = literature, cited from earlier work; for therapeutic index: relative to corresponding tertiary amines
[2] = literature, cited from earlier work
[3] = literature, cited from earlier work; remark: listed apart in the source
[4] = Plasma naltrexone concentration after oral dosing in dogs; assay type: in vivo; conditions: dog, normalized for dose
Procedure: (§1) Among the experiments used to evaluate the N-oxide prodrugs of the instant invention were measurements of their reduction rates in vitro by various biological media from rats, dogs, and humans, and drug bioavailability in rats and dogs administered oral doses of the prodrug. Drug concentration was determined after solvent extraction, using high pressure liquid chromatography analytical procedures.
(§2) Rats and dogs were administered the parent drug intravenously and orally, and the prodrugs were administered orally. Usually, doses were administered as aqueous solutions prepared immediately before dosing. Plasma was collected and frozen until analysis of drug concentration. The area under the plasma drug concentration versus time curve (AUC) was calculated for each animal. […]. Relative bioavailability (RB) of parent drug was determined by comparing the bioavailability from orally administered prodrug F(pro) with the bioavailability from orally administered parent drug F(drug). [formula]

[5] = background, cited from earlier work
[6] = guinea pig liver microsomal preparation; literature; cited from earlier work
[7] = administered to rats; literature; cited from earlier work
[8] = administered to rabbits; literature; cited from earlier work
[9] = administered to mice; literature; cited from earlier work
[10] = Plasma naloxone concentration after oral dosing in dogs; assay type: in vivo; conditions: dog; for concentration at 0.5 h / concentration at 1 h / concentration at 2 h / concentration at 3 h / concentration at 4 h / concentration at 6 h / concentration at 8 h: in vivo, equimolar oral doses, read-out: Average Plasma Naloxone Conc.
Procedure: as §1, §2

[11] = In vitro reduction of N-oxide to drug in human plasma; assay type: in vitro ADME; conditions: 37° C., 0.28 μM
Procedure: as §1
(§3) Prodrug was added to fresh biological medium to a concentration of 0.28 μM, incubated at 37° C., and the rate of drug appearance was measured.

[12] = In vitro reduction of N-oxide to drug in dog plasma; assay type: in vitro ADME; conditions: 37° C., read-out: t1/2 of conversion of nalbuphine N-oxide to nalbuphine (converted)
Procedure: as §1, §3

[13] = In vitro reduction of N-oxide to drug in rat plasma; assay type: in vitro ADME; conditions: 37° C., read-out: t1/2 of conversion of nalbuphine N-oxide to nalbuphine (converted)
Procedure: as §1, §3

[14] = In vitro reduction of N-oxide to drug in rat liver homogenate; assay type: in vitro ADME; conditions: in 3 minutes, rat liver homogenate (25%), 37° C., read-out: Conversion of nalbuphine N-oxide to nalbuphine
Procedure: as §1, §3

[15] = In vitro reduction of N-oxide to drug in rat intestine homogenate; assay type: in vitro ADME; conditions: in 10 minutes, rat intestine homogenate (25%), 37° C., read-out: Conversion of nalbuphine N-oxide to nalbuphine
Procedure: as §1, §3

[16] = rabbits administered oxycodone subcutaneously; literature; cited from earlier work
[17] = literature; cited from earlier work
[18] = Oral bioavailability in rats; assay type: in vivo; conditions: plasma; rat, oral nalbuphine; read-out: F(DRUG), nalbuphine bioavailability from orally administered parent drug
Procedure: as §1
(§4) Rats and dogs were administered the parent drug intravenously and orally, and the prodrugs were administered orally. Usually, doses were administered as aqueous solutions prepared immediately before dosing. Plasma was collected and frozen until analysis of drug concentration. The area under the plasma drug concentration versus time curve (AUC) was calculated for each animal. Bioavailability (F) was estimated by: [formula] F represents the percentage of the administered dose absorbed into plasma. Relative bioavailability (RB) of parent drug was determined by comparing the bioavailability from orally administered prodrug F(pro) with the bioavailability from orally administered parent drug F(drug). [formula]

[19] = Oral bioavailability in dogs; assay type: in vivo; conditions: plasma, dog, read-out: oral bioavailability of nalbuphine
Procedure: as §1, §4

In the case of `COc1ccc2c(c1)[C@@]13CCCC[C@H]1[C@@H](C2)[N+](C)([O-])CC3` (stereo partly drawn) [3-methoxy-N-methylmorphinan N-oxide], the therapeutic index [1] is listed as “higher therapeutic index than the corresponding tertiary amines”.
For `CC[N+]([O-])(CC)CC(=O)N1CCN2C(=O)c3ccccc3C12c1ccccc1` (stereo not drawn), the pharmacological properties ([2]; Swiss Patent No. 481,124) is given as “analgesic, sedative, antitussive, hypotensive, and spasmolytic properties”.
For `C[N+]1([O-])CCC[C@H]1c1cccnc1` (stereo partly drawn) [nicotine-1'-N-oxide], the reduction to nicotine ([3]; man, oral versus intravenous) is listed as “partially reduced to nicotine in man after oral administration, but not after intravenous administration” and the first-pass phenomenon ([3]; oral) is listed as “substantially avoids the first-pass phenomenon seen with oral nicotine”.
In the case of `O=C1CC[C@@]2(O)[C@H]3Cc4ccc(O)c5c4[C@@]2(CCN3CC2CC2)[C@H]1O5` [Naltrexone, (-)-17-(Cyclopropylmethyl)-4,5α-epoxy-3,14-dihydroxymorphinan-6-one], the “Average Plasma Naltrexone Conc.” value ([4]; 0.25 hours) is reported as 9 ng/mL, the “Average Plasma Naltrexone Conc.” value ([4]; 0.5 hours) is reported as 9 ng/mL and the “Average Plasma Naltrexone Conc.” value ([4]; 1 hour) is reported as 4 ng/mL. For the same molecule, the “Average Plasma Naltrexone Conc.” value ([4]; 1.5 hours) was 4 ng/mL, the “Average Plasma Naltrexone Conc.” value ([4]; 2 hours) was 0 ng/mL and the “Average Plasma Naltrexone Conc.” value ([4]; 3 hours) was 0 ng/mL. The “Average Plasma Naltrexone Conc.” value ([4]; 4 hours) was 0 ng/mL, the “Average Plasma Naltrexone Conc.” value ([4]; 6 hours) was 0 ng/mL and the “Average Plasma Naltrexone Conc.” value ([4]; 8 hours) was 0 ng/mL.
For `C[N+]1([O-])CC[C@]23CCCC[C@H]2[C@H]1Cc1ccc(O)cc13` (stereo partly drawn) [3-hydroxy-N-methylmorphinan N-oxide], the therapeutic index [1] is given as “higher therapeutic index than the corresponding tertiary amines”.
In the case of `O=C1CC[C@@]2(O)[C@H]3Cc4ccc(O)c5c4[C@@]2(CC[N+]3([O-])CC2CC2)[C@H]1O5` (stereo partly drawn) [Naltrexone N-oxide], the “Average Plasma Naltrexone Conc.” value ([4]; 0.25 hours) is reported as 424 ng/mL, the “Average Plasma Naltrexone Conc.” value ([4]; 0.5 hours) is reported as 752 ng/mL and the “Average Plasma Naltrexone Conc.” value ([4]; 1 hour) is reported as 713 ng/mL. For the same molecule, the “Average Plasma Naltrexone Conc.” value ([4]; 1.5 hours) was 559 ng/mL, the “Average Plasma Naltrexone Conc.” value ([4]; 2 hours) was 484 ng/mL and the “Average Plasma Naltrexone Conc.” value ([4]; 3 hours) was 251 ng/mL. For the same molecule, the “Average Plasma Naltrexone Conc.” value ([4]; 4 hours) was 110 ng/mL, the “Average Plasma Naltrexone Conc.” value ([4]; 6 hours) was 24 ng/mL and the “Average Plasma Naltrexone Conc.” value ([4]; 8 hours) was 8 ng/mL.
For 3-methyl-morphine [Codeine], the “oral:parenteral potency ratio” value ([5]; relative to morphine) is given as “much higher oral:parenteral potency ratio than morphine”, the “conversion to N-oxide” value [6] is given as “converted in part to the corresponding N-oxides” and the “metabolism to N-oxide” value [7] is given as “partially metabolized to the N-oxides”.
For `CCC(=O)OC1(c2ccccc2)CC[N+](C)([O-])CC1` (stereo not drawn) [N-oxide of 1-methyl-4-phenyl-4-propionoxypiperidine HCl], the “duration of analgesic activity” value ([2]; relative to dolantin HCl) is given as “of longer duration”, the analgesic activity [2] is given as “analgesic activity equal to that of dolantin HCl” and the toxicity [1] is given as “Toxicity was also less”.
For `CCC(=O)OC1(c2ccccc2)CC[N+](C)([O-])CC1` (stereo not drawn) [N-oxide of 1-methyl-4-phenyl-4-piperidinol propionate], the “reduction of N-oxide to tertiary amine” value [8] is given as “partially reduced to the tertiary amine”, the “reduction of N-oxide to tertiary amine” value [9] is given as “partially reduced to the tertiary amine” and the “reduction of N-oxide to tertiary amine” value [7] is given as “partially reduced to the tertiary amine”.
With `C=CCN1CC[C@]23c4c5ccc(O)c4O[C@H]2C(=O)CC[C@@]3(O)[C@H]1C5` [Naloxone, (-)-17-Allyl-4,5α-epoxy-3,14-dihydroxymorphinan-6-one] the concentration at 0.5 h [10] was 451 ng/mL, the concentration at 1 h [10] was 176 ng/mL and the concentration at 2 h [10] was 65 ng/mL. For the same molecule, the concentration at 3 h [10] was 30 ng/mL, the concentration at 4 h [10] was 10 ng/mL and the concentration at 6 h [10] was 10 ng/mL. For the same molecule, the concentration at 8 h [10] was 5 ng/mL.
For `C=CC[N+]1([O-])CC[C@]23c4c5ccc(O)c4O[C@H]2C(=O)CC[C@@]3(O)[C@H]1C5` (stereo partly drawn) [Naloxone N-oxide, naloxone N-oxide], the “Oral naloxone bioavailability when administered as the N-oxide, relative to naloxone” value ([10]; oral) was “improved”, the concentration at 0.5 h [10] was 947 ng/mL and the concentration at 1 h [10] was 1220 ng/mL. It also gave a concentration at 2 h [10] of 797 ng/mL, a concentration at 3 h [10] of 289 ng/mL and a concentration at 4 h [10] of 107 ng/mL. The concentration at 6 h [10] was 22 ng/mL and the concentration at 8 h [10] was 6 ng/mL.
With `[O-][N+]1(CC2CCC2)CC[C@]23c4c5ccc(O)c4O[C@H]2[C@@H](O)CC[C@@]3(O)[C@H]1C5` (stereo partly drawn) [Nalbuphine N-oxide] the “Rate of conversion of nalbuphine N-oxide to nalbuphine” value [11] was “negligible”, the half-life at 0.28 µM [12] was 2.24 days and the half-life at 0.28 µM [13] was 360 min. It also gave a metabolised at 0.05 h, 0.28 µM [14] of 100% and a metabolised at 10 min, 0.28 µM [15] of 100%.
For `COc1ccc2c3c1O[C@H]1C(=O)CC[C@@]4(O)[C@@H](C2)N(C)CC[C@]314` [Oxycodone], the oral potency [5] is listed as “similarly good oral potency”.
For `COc1ccc2c3c1O[C@H]1C(=O)CC[C@@]4(O)[C@@H](C2)[N+](C)([O-])CC[C@]314` (stereo partly drawn) [oxycodone N-oxide], the “form of metabolite in urine” value [16] is listed as “found only in the free, unconjugated form”.
For `C[N+]1([O-])CC[C@]23c4c5ccc(O)c4O[C@H]2[C@@H](O)C=C[C@H]3[C@H]1C5` (stereo partly drawn) [Morphine N-oxide], the analgesic activity [2] is listed as “either less active or inactive as an analgesic”, the antitussive activity [17] is listed as “effective antitussive” and the toxicity [1] is listed as “somewhat lower toxicity than morphine”. For the same molecule, the “reduction of N-oxide to tertiary amine” value [7] was “partially reduced to morphine”.
For `Oc1ccc2c3c1O[C@H]1[C@@H](O)CC[C@@]4(O)[C@@H](C2)N(CC2CCC2)CC[C@]314` [Nalbuphine, (-)-17-(Cyclobutylmethyl)-4,5α-epoxymorphinan-3,6α,14-triol], the bioavailability [18] was 2.7 ± 0.4% and the bioavailability [19] was 5.4%.
